Measured values reported in patent US10752588B2 (The Broad Institute, Inc., priority 2014, dated 2020).

Tests used:
human D2R/β-arrestin [1] = biological target: T1, human D2R/β-arrestin (Homo sapiens (Human), UniProt P14416); experiment: β-Arrestin agonist assay (PathHunter); format: cell-based; conditions: CHO-K1 cell line expressing human D2R/β-arrestin
Method: (§1) The assays can be performed using proper detection reagents either prepared using routine methods known in the art or commercially available (e.g., PathHunter® β-Arrestin Detecting Kit (DiscoveRX)). Cells are grown to the necessary confluence and then detached. The cells are then centrifuged, washed, resuspended, and seeded into a container (e.g., 384-well plate). The cells are incubated (e.g., at 37° C., 5% CO2) for the appropriate period of time (e.g., 24 hours), before various compounds (e.g., a compound of the invention or a control compound) are added to the cells. After incubation of the cells with the compounds, detection reagents (e.g., a buffer containing Emerald II: Galactor-Star as provided DiscoveRX) are added to the cells. The read-out (e.g., luminescence, or fluorescence) is detected using standard equipment.
The detection reagent (9.6 μL, Buffer:Emerald II:Galactor-Star in a 19:5:1 ratio, i.e., 14.06 mL:3.7 mL:0.74 mL=18.5 mL) was then added to the agonist plates.

human D2R/β-arrestin [2] = biological target: T1, human D2R/β-arrestin; experiment: Gi/cAMP agonist assay (Lance Ultra cAMP, Forskolin); format: cell-based; conditions: CHO-K1 cell line expressing human D2R/β-arrestin
Method: as §1, with “PE Lance Ultra cAMP kit (TRF0263)).” for “PathHunter® β-Arrestin Detecting Kit (DiscoveRX)).”, “Afterwards, cAMP inducing agents (e.g., Forskolin) are added to and incubated with” for “After incubation of”, “before” for “with the compounds,”, “cAMP antibody, such” for “buffer containing Emerald II: Galactor-Star”, “ULight-anti-cAMP solution)” for “provided DiscoveRX)”, “Read-out” for “The read-out”
Compounds were pin-transferred (100 nL) to the cells, and incubated for 10 min. at 37° C. […] Eu-cAMP tracer solution (100, PerkinElmer, […] in 17.64 ml kit buffer) and ULight-anti-cAMP solution (100, 120 μL antibody in 17.88 ml kit buffer) was then added to each well.

human D2R/β-arrestin [3] = biological target: T1, human D2R/β-arrestin; experiment: cell-based; conditions: β-arrestin Antagonist, CHO-K1 cell line expressing human D2R/β-arrestin; quinpirole used as agonist
human D2R/β-arrestin [4] = biological target: T1, human D2R/β-arrestin; experiment: cell-based; conditions: cAMP Antagonist, CHO-K1 cell line expressing human D2R/β-arrestin; quinpirole used as agonist

T1 sequence (P14416 whole entry): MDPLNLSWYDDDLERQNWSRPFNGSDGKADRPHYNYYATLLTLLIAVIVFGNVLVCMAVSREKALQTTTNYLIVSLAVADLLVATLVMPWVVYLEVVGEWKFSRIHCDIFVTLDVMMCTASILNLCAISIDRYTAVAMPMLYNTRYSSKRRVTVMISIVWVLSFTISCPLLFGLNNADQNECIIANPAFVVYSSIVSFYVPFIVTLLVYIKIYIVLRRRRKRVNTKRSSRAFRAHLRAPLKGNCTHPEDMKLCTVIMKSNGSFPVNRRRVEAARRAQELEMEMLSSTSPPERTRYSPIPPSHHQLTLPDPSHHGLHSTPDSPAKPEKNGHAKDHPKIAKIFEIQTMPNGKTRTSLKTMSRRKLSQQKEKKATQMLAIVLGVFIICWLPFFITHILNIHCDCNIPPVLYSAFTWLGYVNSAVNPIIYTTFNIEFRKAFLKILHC

Compound | EC50 (human D2R/β-arrestin [1]) [µM] | EC50 (human D2R/β-arrestin [2]) [µM] | IC50 (human D2R/β-arrestin [3]) [µM] | IC50 (human D2R/β-arrestin [4]) [µM]
CC(C)N(CC1CCN(CCOc2ccccc2F)CC1)C(c1ccc(Cl)cc1)c1ccccn1 (single isomer, unassigned) [Compound 133b, N-((4-chlorophenyl)(pyridin-2-yl)methyl)-N-((1-(2-(2-fluorophenoxy)ethyl)piperidin-4-yl)methyl)propan-2-amine] | < 0.1 | < 0.1 | 0.1 to 1 | > 30
O=C(NC(c1ccc(Cl)cc1)c1ccccn1)C1CCN(CCOc2cccc(Cl)c2)CC1 (stereo not drawn) [Compound 1, 1-(2-(3-chlorophenoxy)ethyl)-N-((4-chlorophenyl)(pyridin-2-yl)methyl)piperidine-4-carboxamide] | > 30 | < 0.1 | 0.1 to 1 | > 30
O=C(NC(c1ccc(Cl)cc1)c1ccccn1)C1CCN(CCOc2ccc(Cl)cc2)CC1 (stereo not drawn) [Compound 2, 1-(2-(4-chlorophenoxy)ethyl)-N-((4-chlorophenyl)(pyridine-2-yl)methyl) piperidine-4-carboxamide] | > 30 | 0.1 to 1 | 1 to 10 | > 30
O=C(NC(c1ccc(Cl)cc1)c1ccccn1)C1CCN(CCOc2cccc(F)c2)CC1 (stereo not drawn) [Compound 4] | > 30 | < 0.1 | 0.1 to 1 | > 30
O=C(NC(c1ccc(Cl)cc1)c1ccccn1)C1CCN(CCn2ccccc2=O)CC1 (stereo not drawn) [Compound 9, N((4-chlorophenyl)(pyridin-2-yl)methyl)-1-(2-(2-oxopyridin-1(2H)-yl)ethyl) piperidine-4-carboxamide] | > 30 | > 30 | 1 to 10 | 1 to 10
COc1cccc(OCCN2CCC(C(=O)NC(c3ccc(Cl)cc3)c3ccccn3)CC2)c1 (stereo not drawn) [Compound 12, N-((4-chlorophenyl) (pyridin-2-yl)methyl)-1-(2-(3-methoxyphenoxy)ethyl) piperidine-4-carboxamide] | > 30 | 10 to 30 | 1 to 10 | 0.1 to 1
COc1ccc(OCCN2CCC(C(=O)NC(c3ccc(Cl)cc3)c3ccccn3)CC2)cc1 (stereo not drawn) [Compound 13, N-((4-chlorophenyl)(pyridin-2-yl)methyl)-1-(2-(4-methoxyphenoxy)ethyl) piperidine-4-carboxamide] | > 30 | 1 to 10 | 1 to 10 | > 30
O=C(NC(c1ccc(Cl)cc1)c1ccccn1)C1CCN(CCOC2CCCCC2)CC1 (stereo not drawn) [Compound 17, N-((4-chlorophenyl) (pyridin-2-yl)methyl)-1-(2-(cyclohexyloxy)ethyl) piperidine-4-carboxamide] | > 30 | > 30 | 1 to 10 | 0.1 to 1
O=C(NC(c1ccc(Cl)cc1)c1ccccn1)C1CCN(CCOc2ccc3ncsc3c2)CC1 (stereo not drawn) [Compound 19, 1-(2-(Benzo[d]thiazol-6-yloxy)ethyl)-N-((4-chlorophenyl)(pyridin-2-yl)methyl) piperidine-4-carboxamide] | > 30 | 0.1 to 1 | 1 to 10 | > 30
COc1cccc(C(NC(=O)C2CCN(CCOc3ccccc3C(F)(F)F)CC2)c2ccccn2)c1 (stereo not drawn) [Compound 20, N-((3-methoxyphenyl)(pyridin-2-yl)methyl)-1-(2-(2-(trifluoromethyl)phenoxy)ethyl) piperidine-4-carboxamide] | > 30 | > 30 | 0.1 to 1 | < 0.1
COc1cccc(C(NC(=O)C2CCN(CCOc3ccccc3Cl)CC2)c2ccccn2)c1 (stereo not drawn) [Compound 21, 1-(2-(2-chlorophenoxy)ethyl)-N-((3-methoxyphenyl)(pyridin-2-yl)methyl) piperidine-4-carboxamide] | > 30 | > 30 | 0.1 to 1 | 0.1 to 1
COc1cccc(C(NC(=O)C2CCN(CCOc3ccccc3F)CC2)c2ccccn2)c1 (stereo not drawn) [Compound 22, 1-(2-(2-fluorophenoxy)ethyl)-N-((3-methoxyphenyl)(pyridin-2-yl)methyl) piperidine-4-carboxamide] | > 30 | > 30 | 0.1 to 1 | 0.1 to 1
O=C(NC(c1ccccn1)c1ccccc1Cl)C1CCN(CCOc2ccccc2)CC1 (stereo not drawn) [Compound 24] | > 30 | 1 to 10 | 1 to 10 | > 30
O=C(NC(c1cccnc1)c1ccccn1)C1CCN(CCOc2ccccc2)CC1 (stereo not drawn) [Compound 29, 1-(2-phenoxyethyl)-N-(pyridin-2-yl(pyridin-3-yl)methyl)piperidine-4-carboxamide] | > 30 | 0.1 to 1 | 1 to 10 | > 30
O=C(NC(c1ccccn1)c1ccccn1)C1CCN(CCOc2ccccc2)CC1 [Compound 30, N-(di(pyridin-2-yl)methyl)-1-(2-phenoxyethyl)piperidine-4-carboxamide] | > 30 | 1 to 10 | 10 to 30 | > 30

Continued, values first:

EC50 (human D2R/β-arrestin [1]) [µM] | EC50 (human D2R/β-arrestin [2]) [µM] | IC50 (human D2R/β-arrestin [3]) [µM] | IC50 (human D2R/β-arrestin [4]) [µM] | Compound
0.1 to 1 | 1 to 10 | 0.1 to 1 | > 30 | Fc1ccccc1OCCN1CCC(CN(CC(F)(F)F)C(c2ccc(Cl)cc2)c2ccccn2)CC1 (single isomer, unassigned) [Compound 136a, N-((4-chlorophenyl)(pyridin-2-yl)methyl)-2,2,2-trifluoro-N-((1-(2-(2-fluorophenoxy)ethyl)piperidin-4-yl)methyl)ethan-1-amine]
> 30 | > 30 | < 0.1 | < 0.1 | Fc1ccccc1OCCN1CCC(CN(CC(F)(F)F)C(c2ccc(Cl)cc2)c2ccccn2)CC1 (single isomer, unassigned) [Compound 136b, N-((4-chlorophenyl)(pyridin-2-yl)methyl)-2,2,2-trifluoro-N-((1-(2-(2-fluorophenoxy)ethyl)piperidin-4-yl)methyl)ethan-1-amine]
0.1 to 1 | < 0.1 | 0.1 to 1 | > 30 | CN(CC1CCN(CCOc2ccccc2F)CC1)C(c1ccc2c(c1)OCO2)c1ccccn1 (single isomer, unassigned) [Compound 138a, 1-(benzo[d][1,3]dioxol-5-yl)-N-((1-(2-(2-fluorophenoxy)ethyl)piperidin-4-yl)methyl)-N-methyl-1-(pyridin-2-yl)methanamine]
> 30 | < 0.1 | 0.1 to 1 | 0.1 to 1 | Fc1ccccc1OCCN1CCC(CNC(c2ccc3c(c2)OCO3)c2ccccn2)CC1 (single isomer, unassigned) [Compound 139a, 1-(benzo[d][1,3]dioxol-5-yl)-N-((1-(2-(2-fluorophenoxy)ethyl)piperidin-4-yl)methyl)-1-(pyridin-2-yl)methanamine]
> 30 | > 30 | 10 to 30 | 1 to 10 | COc1cccc(C(NC(=O)C2CCN(CCOc3ccc(F)cc3F)CC2)c2ccccn2)c1 (single isomer, unassigned) [Compound 145a, 1-(2-(2,4-difluorophenoxy)ethyl)-N-((3-methoxyphenyl)(pyridin-2-yl)methyl)piperidine-4-carboxamide]
> 30 | > 30 | 1 to 10 | 0.1 to 1 | COc1cccc(C(NC(=O)C2CCN(CCOc3ccc(F)cc3F)CC2)c2ccccn2)c1 (single isomer, unassigned) [Compound 145b, 1-(2-(2,4-difluorophenoxy)ethyl)-N-((3-methoxyphenyl)(pyridin-2-yl)methyl)piperidine-4-carboxamide]
